Experimental data as given in the NIST ThermoML archive (doi:10.1016/j.tca.2016.05.001).
Values joined by “and” are separate entries in the source; they are usually repeats but may differ in a detail not shown here. Equal values may be shown once.

Legend:
[1] = for Triple point temperature: DSC
[2] = Molar enthalpy of transition or fusion; details: Crystal; DSC

c1ccc2nc3ccccc3cc2c1 [acridine]
[1]
Details	vapor or sublimation pressure
292.1 K, Crystal, Calculated from knudsen effusion weight loss	4e-06 kPa
293 K, Crystal, Calculated from knudsen effusion weight loss	4.7e-06 kPa
295.2 K, Crystal, Calculated from knudsen effusion weight loss	6.3e-06 kPa
296.1 K, Crystal, Calculated from knudsen effusion weight loss	6.7e-06 kPa
298.4 K, Crystal, Calculated from knudsen effusion weight loss	9.6e-06 kPa
300 K, Crystal, Calculated from knudsen effusion weight loss	1.2e-05 kPa
301.3 K, Crystal, Calculated from knudsen effusion weight loss	1.4e-05 kPa
303 K, Crystal, Calculated from knudsen effusion weight loss	1.8e-05 kPa
304.2 K, Crystal, Calculated from knudsen effusion weight loss	2e-05 kPa
305.9 K, Crystal, Calculated from knudsen effusion weight loss	2.6e-05 kPa
306.2 K, Crystal, Calculated from knudsen effusion weight loss	2.6e-05 kPa
308.1 K, Crystal, Calculated from knudsen effusion weight loss	3.3e-05 kPa
308.9 K, Crystal, Calculated from knudsen effusion weight loss	3.7e-05 kPa
311.1 K, Crystal, Calculated from knudsen effusion weight loss	4.7e-05 kPa
311.9 K, Crystal, Calculated from knudsen effusion weight loss	5.3e-05 kPa
314.1 K, Crystal, Calculated from knudsen effusion weight loss	6.8e-05 kPa
314.8 K, Crystal, Calculated from knudsen effusion weight loss	7.1e-05 kPa
315.8 K, Crystal, Calculated from knudsen effusion weight loss	8.4e-05 kPa
317 K, Crystal, Calculated from knudsen effusion weight loss	9.3e-05 kPa
317.8 K, Crystal, Calculated from knudsen effusion weight loss	9.8e-05 kPa
318.1 K, Crystal, Calculated from knudsen effusion weight loss	9.7e-05 kPa
318.8 K, Crystal, Calculated from knudsen effusion weight loss	0.000119 kPa
319.4 K, Crystal, Calculated from knudsen effusion weight loss	0.00011 kPa
320 K, Crystal, Calculated from knudsen effusion weight loss	0.000134 kPa
320.8 K, Crystal, Calculated from knudsen effusion weight loss	0.000138 kPa and 0.000148 kPa
321.1 K, Crystal, Calculated from knudsen effusion weight loss	0.00014 kPa
322.3 K, Crystal, Calculated from knudsen effusion weight loss	0.00015 kPa
322.9 K, Crystal, Calculated from knudsen effusion weight loss	0.000179 kPa
324 K, Crystal, Calculated from knudsen effusion weight loss	0.00019 kPa
325.1 K, Crystal, Calculated from knudsen effusion weight loss	0.00021 kPa
327 K, Crystal, Calculated from knudsen effusion weight loss	0.00027 kPa
328.1 K, Crystal, Calculated from knudsen effusion weight loss	0.0003 kPa
329.9 K, Crystal, Calculated from knudsen effusion weight loss	0.00036 kPa
331.1 K, Crystal, Calculated from knudsen effusion weight loss	0.0004 kPa
332.9 K, Crystal, Calculated from knudsen effusion weight loss	0.00048 kPa
334 K, Crystal, Calculated from knudsen effusion weight loss	0.00057 kPa
335.9 K, Crystal, Calculated from knudsen effusion weight loss	0.0007 kPa
337.1 K, Crystal, Calculated from knudsen effusion weight loss	0.00075 kPa
338.9 K, Crystal, Calculated from knudsen effusion weight loss	0.00091 kPa
340.2 K, Crystal, Calculated from knudsen effusion weight loss	0.00106 kPa
341.7 K, Crystal, Calculated from knudsen effusion weight loss	0.00122 kPa
343 K, Crystal, Calculated from knudsen effusion weight loss	0.00145 kPa
344.6 K, Crystal, Calculated from knudsen effusion weight loss	0.00162 kPa
346.1 K, Crystal, Calculated from knudsen effusion weight loss	0.0019 kPa
347.6 K, Crystal, Calculated from knudsen effusion weight loss	0.0022 kPa
348.8 K, Crystal, Calculated from knudsen effusion weight loss	0.0025 kPa
388.2 K, Liquid, Rate of evaporation	0.067 kPa
391.2 K, Liquid, Rate of evaporation	0.08 kPa
395.2 K, Liquid, Rate of evaporation	0.099 kPa
399.1 K, Liquid, Rate of evaporation	0.119 kPa
402.1 K, Liquid, Rate of evaporation	0.147 kPa
405 K, Liquid, Rate of evaporation	0.17 kPa
408 K, Liquid, Rate of evaporation	0.197 kPa
412 K, Liquid, Rate of evaporation	0.241 kPa
416 K, Liquid, Rate of evaporation	0.292 kPa
419.9 K, Liquid, Rate of evaporation	0.338 kPa
422.9 K, Liquid, Rate of evaporation	0.396 kPa
425.9 K, Liquid, Rate of evaporation	0.443 kPa
428.9 K, Liquid, Rate of evaporation	0.51 kPa
431.8 K, Liquid, Rate of evaporation	0.601 kPa

Details	Triple point temperature [K]
[1], Crystal	382

Details	Molar enthalpy of transition or fusion [kcal/mol]
[2]	4.9

c1ccc2c(c1)cnc1ccccc12 [phenanthridine]
[1]
Details	vapor or sublimation pressure
318.6 K, Crystal, Torsion effusion method	3.8e-05 kPa
322.1 K, Crystal, Torsion effusion method	5.7e-05 kPa
323.2 K, Crystal, Torsion effusion method	7.6e-05 kPa
324 K, Crystal, Torsion effusion method	7.6e-05 kPa
325 K, Crystal, Torsion effusion method	8.5e-05 kPa
325.2 K, Crystal, Torsion effusion method	9.4e-05 kPa
325.9 K, Crystal, Torsion effusion method	0.000104 kPa
327 K, Crystal, Torsion effusion method	0.000104 kPa
327.6 K, Crystal, Torsion effusion method	0.000124 kPa
329.1 K, Crystal, Torsion effusion method	0.000133 kPa
329.3 K, Crystal, Torsion effusion method	0.000151 kPa
330 K, Crystal, Torsion effusion method	0.000142 kPa
330.9 K, Crystal, Torsion effusion method	0.000181 kPa
331.9 K, Crystal, Torsion effusion method	0.00019 kPa
332.6 K, Crystal, Torsion effusion method	0.000208 kPa
332.9 K, Crystal, Torsion effusion method	0.000228 kPa
333.9 K, Crystal, Torsion effusion method	0.00025 kPa
334.1 K, Crystal, Torsion effusion method	0.00023 kPa
334.7 K, Crystal, Torsion effusion method	0.00025 kPa
335 K, Crystal, Torsion effusion method	0.00026 kPa
335.7 K, Crystal, Torsion effusion method	0.0003 kPa
335.9 K, Crystal, Torsion effusion method	0.00028 kPa
337 K, Crystal, Torsion effusion method	0.00034 kPa
337.9 K, Crystal, Torsion effusion method	0.00038 kPa
338.4 K, Crystal, Torsion effusion method	0.00036 kPa
339.8 K, Crystal, Torsion effusion method	0.00045 kPa
340 K, Crystal, Torsion effusion method	0.00044 kPa and 0.00047 kPa
341.4 K, Crystal, Torsion effusion method	0.00053 kPa
341.5 K, Crystal, Torsion effusion method	0.00055 kPa
342.2 K, Crystal, Torsion effusion method	0.00061 kPa
342.9 K, Crystal, Torsion effusion method	0.00061 kPa
343.2 K, Crystal, Torsion effusion method	0.00072 kPa
345.3 K, Crystal, Torsion effusion method	0.00085 kPa
345.5 K, Crystal, Torsion effusion method	0.00079 kPa
347.1 K, Crystal, Torsion effusion method	0.001 kPa
347.3 K, Crystal, Torsion effusion method	0.00093 kPa
348.2 K, Crystal, Torsion effusion method	0.00115 kPa
349.4 K, Crystal, Torsion effusion method	0.00128 kPa
388.1 K, Liquid, Rate of evaporation	0.038 kPa
393.1 K, Liquid, Rate of evaporation	0.05 kPa
398.1 K, Liquid, Rate of evaporation	0.065 kPa
403.1 K, Liquid, Rate of evaporation	0.086 kPa
408.1 K, Liquid, Rate of evaporation	0.113 kPa
413.1 K, Liquid, Rate of evaporation	0.145 kPa
418.1 K, Liquid, Rate of evaporation	0.187 kPa
423.1 K, Liquid, Rate of evaporation	0.24 kPa
428.1 K, Liquid, Rate of evaporation	0.302 kPa
433.1 K, Liquid, Rate of evaporation	0.369 kPa
438.1 K, Liquid, Rate of evaporation	0.469 kPa
443.1 K, Liquid, Rate of evaporation	0.567 kPa
448.1 K, Liquid, Rate of evaporation	0.728 kPa
453.1 K, Liquid, Rate of evaporation	0.854 kPa

Details	Triple point temperature [K]
[1], Crystal	379.1

Details	Molar enthalpy of transition or fusion [kcal/mol]
[2]	5.93
